What was measured:
thromboxane synthase [1] = biological target: T1, thromboxane synthase (Homo sapiens, UniProt P24557); assay: Thromboxane Synthase Inhibition (TSI) Assay: serum TXB2 by radioimmunoassay in whole human blood; assay type: cell-based; settings: for Serum TXB2: mean ± SE, n = 3, vehicle 375
T1 construct: incubated with fresh whole human blood that had been anticoagulated with 0.38% trisodium citrate; from tissue; host or cells: fresh whole human blood (citrated, recalcified)
T1 sequence (P24557 1-533): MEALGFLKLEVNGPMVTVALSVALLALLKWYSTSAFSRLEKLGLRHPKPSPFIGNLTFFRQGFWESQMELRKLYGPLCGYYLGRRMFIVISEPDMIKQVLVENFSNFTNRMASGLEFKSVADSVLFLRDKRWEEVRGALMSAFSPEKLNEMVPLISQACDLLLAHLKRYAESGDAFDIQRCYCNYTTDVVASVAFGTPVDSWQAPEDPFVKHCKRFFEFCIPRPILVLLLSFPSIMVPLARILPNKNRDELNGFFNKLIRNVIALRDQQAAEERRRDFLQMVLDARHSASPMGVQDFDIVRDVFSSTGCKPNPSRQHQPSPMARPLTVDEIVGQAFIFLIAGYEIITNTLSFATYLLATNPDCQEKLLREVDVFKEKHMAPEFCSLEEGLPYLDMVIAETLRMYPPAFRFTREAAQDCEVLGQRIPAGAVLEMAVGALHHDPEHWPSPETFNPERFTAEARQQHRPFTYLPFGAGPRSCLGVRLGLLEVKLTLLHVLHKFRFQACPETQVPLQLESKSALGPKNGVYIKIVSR
Method: The ability of the compound of the present invention to be an effective thromboxane synthase inhibitor were evaluated in the following Thromboxane Synthase Inhibition (TSI) Assay with the results shown in Table 1 below:
Method for Thromboxane Synthase Inhibition (TSI) Test:
(§1) The test compound - 6-azaindole-1-hexanoic acid (the compound of Example 1, Part D) was dissolved in dimethylsulfoxide at varying concentrations. The compound solutions and dimethylsulfoxide alone (vehicle) were incubated with fresh whole human blood that had been anticoagulated with 0.38% trisodium citrate, for 30 minutes at 37° C. After 30 minutes, 0.025 ml of 0.5 M calcium chloride solution was added to each 1 ml of blood and further incubated for one hour at 37° C. Serum was prepared by centrifugation of the blood at 2000 x g for 15 minutes in a Beckman table top centrifuge. Serum TXB2 and 6-keto-PGF1a, the stable metabolites of and markers of synthesis of TXA2 and prostacyclin respectively, were measured by radioimmunoassay by commonly used test methods (see, Refs.,1 & 2 below). Results from the radioimmunoassay of TXB2 are shown in Table 1 and indicate the dose-dependent potency of the compound of Example 1, Part D as a thromboxane synthase inhibitor.

thromboxane synthase [2] = assay: Oral activity: serum TXB2 in rats one hour after oral dosing; assay type: in vivo; settings: blood one hour after dosing, mean ± SE, n = 3, dose 0: 340
Method: The oral activity of 6-azaindole-1-hexanoic acid was established by treating rats via the oral route with solutions of the compound and one hour later collecting blood. The blood was allowed to clot in glass tubes for 1 hour at 37° C. Serum was collected after sedimentation of the clot by centrifugation at 2000 x g for 15 minutes in a Beckman table top centrifuge. The levels of TXB2 were measured in the serum by radioimmunoassay. Decreased levels of TXB2 indicate the presence of compound in the blood resulting from oral absorption. The results of these experiments are shown in Table 3 and document the availability of the compound via the oral route of administration and the dose-dependency of the desired inhibitory effect on serum TXB2.

[3] = system: cyclooxygenase and prostacyclin synthase; assay: Serum 6-keto-PGF1a by radioimmunoassay in whole human blood (specificity of TSI); assay type: cell-based; settings: for Serum 6-keto-PGF1a: whole human blood, mean ± SE, n = 3, vehicle 1.6 ± 0.2
Method: as §1
Data determined from the radioimmunoassay of serum 6-keto-PGF1a (reflecting prostacyclin generation) allowed a determination of the specificity of 6-azaindole-1-hexanoic acid for the inhibition of thromboxane synthase versus cyclooxygenase and prostacyclin synthase as indicated by the serum levels of 6-keto-PGF1a. These values decrease in the presence of a nonspecific inhibitor (i.e., aspirin) but are unchanged or increased by specific TSI. The data in Table 2 documents the expected dose-dependent stimulatory effect of the compound of 6-azaindole-1-hexanoic acid on human serum 6-keto-PGF1a levels and confirm the specific TSI by 6-azaindole-1-hexanoic acid.

Serum TXB2 (thromboxane synthase [1]; 0.01 μM compound): 235 ng/mL
Serum TXB2 (thromboxane synthase [1]; 0.1 μM compound): 109 ng/mL
Serum TXB2 (thromboxane synthase [1]; 1 μM compound): 18.8 ng/mL
IC50 (thromboxane synthase [1]; serum TXB2, mean±SE, n=3, read-out: IC50 (concentration required to reduce thromboxane generation to 50% of vehicle)): 23 ± 4.1 nM
Specificity for inhibition of thromboxane synthase versus cyclooxygenase and prostacyclin synthase ([3]; judged from human serum 6-keto-PGF1a levels): specific TSI
SMILES: O=C(O)CCCCCn1ccc2ccncc21 [Example 1 Part D, 6-azaindole-1-hexanoic acid]
Serum TXB2 (thromboxane synthase [2]; 1 mg/kg p.o.): 85.1 ng/mL
Serum TXB2 (thromboxane synthase [2]; 10 mg/kg p.o.): 18.4 ng/mL
Serum 6-keto-PGF1a ([3]; 0.01 μM compound): 1.7 ± 0.1 ng/mL
Serum 6-keto-PGF1a ([3]; 0.1 μM compound): 2.4 ± 0.6 ng/mL
Serum 6-keto-PGF1a ([3]; 1 μM compound): 2.6 ± 0.7 ng/mL
